According to EP0326329B1, “Quinazoline derivatives useful as insecticides” (Dow AgroSciences LLC, priority 1988, dated 1989):

Legend:
Assay type in all cases: in vivo
[1] = test system: Erysiphe graminis tritici (powdery mildew); assay: Greenhouse Test 1, foliar spray fungicide screen (POWD MDEW), host wheat; settings: disease control rating, 400 ppm (+++ at 100 ppm)
[2] = test system: Pyricularia oryzae (rice blast); settings: disease control rating, foliar spray, host rice; 400 ppm (+++ at 100 ppm)
[3] = test system: Puccinia recondita tritici (leaf rust); assay: Greenhouse Test 1, foliar spray fungicide screen (LEAF RUST), host wheat; settings: disease control rating, 400 ppm (+++ at 100 ppm)
[4] = test system: Botrytis cinerea (gray mold); assay: Greenhouse Test 1, foliar spray fungicide screen (GRAY MOLD), host grape berries; settings: disease control rating, 400 ppm (+++ at 100 ppm)
[5] = test system: Pseudoperonospora cubensis (downy mildew); assay: Greenhouse Test 1, foliar spray fungicide screen (DOWN MDEW), host squash; settings: disease control rating, 400 ppm (+++ at 100 ppm)
[6] = test system: Cercospora beticola (leaf spot); assay: Greenhouse Test 1, foliar spray fungicide screen (LEAF SPOT), host sugar beet; settings: disease control rating, 400 ppm (+++ at 100 ppm)
[7] = test system: Venturia inaequalis (apple scab); assay: Greenhouse Test 1, foliar spray fungicide screen (APPL SCAB), host apple seedling; settings: disease control rating, 400 ppm (+++ at 100 ppm)
[8] = test system: Septoria tritici (leaf blotch); assay: Greenhouse Test 1, foliar spray fungicide screen (LEAF BLOT), host wheat; settings: disease control rating, 400 ppm (+++ at 100 ppm)
[9] = test system: Southern corn rootworm (Diabrotica undecimpuctata howardi Barber); assay: Mite/insect screen, soil treatment (CRW); settings: Diabrotica, soil, read-out: CRW RESULTS %
Summary of the method: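 Compounds dissolved in acetone/alcohol (50:50) with Toximul R/S emulsifiers, diluted with water. Soil (15 g, with presoaked corn seed) treated with 1 mL test solution, dried 6–12 h, then five 2–3 instar larvae added; held at 23°C. Percent mortality and phytotoxicity scored after standard exposure periods.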

[10] = test system: southern armyworm (Spodopetra eridania Cramer); assay: Mite/insect screen, sprayed squash leaves (SAW); settings: Spodoptera eridania, read-out: SAW RESULTS %
Summary of the method: (§1)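 Percent mortality and phytotoxicity are the read-outs, assessed after standard exposure periods. Test solutions, made in 50:50 acetone/alcohol with two sulfonate/nonionic emulsifier blends and diluted in water, are sprayed to runoff on both leaf surfaces, which then dry for one hour.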

[11] = test system: Twospotted spider mites (Tetranychus urticae Koch); assay: Mite/insect screen, sprayed squash cotyledons (SM); settings: Tetranychus urticae, read-out: SM RESULTS %
Summary of the method: as §1

[12] = test system: melon aphids (Aphis gossypii Glover); assay: Mite/insect screen, sprayed squash cotyledons (MA); settings: Aphis gossypii, read-out: MA RESULTS %
Summary of the method: as §1

Erysiphe graminis hordei = assay: Fungicide field tests; settings: crop: barley
Excerpt: (§2) Selected compounds were field tested on various crops against a variety of pathogens. […]

[13] = test system: Erysiphe graminis tritici; assay: Fungicide field tests; settings: crop: wheat
Excerpt: as §2

Erysiphe sp. = assay: Fungicide field tests; settings: crop: sugar beet
Excerpt: as §2

Plasmopara viticola = assay: Fungicide field tests; settings: crop: grape
Excerpt: as §2

[14] = test system: Pseudocercosporella herpotrichoides; assay: Fungicide field tests; settings: crop: wheat
Excerpt: as §2

Pyrenophora teres = assay: Fungicide field tests; settings: crop: barley
Excerpt: as §2

Rhynchosporium secalis = assay: Fungicide field tests; settings: crop: barley
Excerpt: as §2

Sphaerotheca fuliginea = assay: Fungicide field tests; settings: crop: cucumber
Excerpt: as §2

Dawson-hop aphid = assay: Mite and insect field trials; settings: plant: hops
Method: (§3) 4-[2-[4-(t-butyl)phenyl]ethoxy]quinazoline and 4-[2-(1,1'-biphenyl)-4 biphenyl)-4-ylethoxy]quinazoline were evaluated against a variety of mite and insect species in field trials.

European red mite = assay: Mite and insect field trials; settings: plant: apples
Method: as §3

apple aphid = assay: Mite and insect field trials; settings: plant: apples
Method: as §3

apple rust mite = assay: Mite and insect field trials; settings: plant: apples
Method: as §3

bean aphid = assay: Mite and insect field trials; settings: plant: bean, faba broad
Method: as §3

black citrus aphid = assay: Mite and insect field trials; settings: plant: lemon
Method: as §3

cereal aphid = assay: Mite and insect field trials; settings: plant: barley
Method: as §3

citrus rust mite = assay: Mite and insect field trials; settings: tested on grapefruit
Method: as §3

cotton aphid = assay: Mite and insect field trials; settings: plant: cotton
Method: as §3

grape leafhopper = assay: Mite and insect field trials; settings: plant: grape (European)
Method: as §3

grape thrips = assay: Mite and insect field trials; settings: plant: grape (European)
Method: as §3

green cloverworm = assay: Mite and insect field trials; settings: plant: alfalfa (Lucerne)
Method: as §3

green peach aphid = assay: Mite and insect field trials
Method: as §3

greenhouse thrips = assay: Mite and insect field trials; settings: plant: azaleas
Method: as §3

pea aphid = assay: Mite and insect field trials
Method: as §3

potato aphid = assay: Mite and insect field trials; settings: plant: turnip
Method: as §3

potato leafhopper = assay: Mite and insect field trials; settings: plant: alfalfa (Lucerne)
Method: as §3

rosy apple aphid = assay: Mite and insect field trials; settings: plant: apples
Method: as §3

tarnished plant bug = assay: Mite and insect field trials; settings: plant: alfalfa (Lucerne)
Method: as §3

thrips = assay: Mite and insect field trials; settings: plant: privet
Method: as §3

twospotted spider mite = assay: Mite and insect field trials
Method: as §3

wheat aphid = assay: Mite and insect field trials; settings: plant: wheat
Method: as §3

white apple leafhopper = assay: Mite and insect field trials; settings: plant: apples
Method: as §3

yellow hickory aphid = assay: Mite and insect field trials; settings: plant: pecan nut
Method: as §3

CC(C)(C)c1ccc(CCOc2ncnc3ccccc23)cc1 [Example 2, 4-[2-[4-(t-butyl)phenyl]ethoxy]quinazoline]
POWD MDEW [1]: ++ (++ = 90-100% control at 400 ppm) | RICE BLAST [2]: +++ (+++ = 90-100% control at 100 ppm) | LEAF RUST [3]: +++ (+++ = 90-100% control at 100 ppm) | GRAY MOLD [4]: - (- = 0-19% control at 400 ppm) | DOWN MDEW [5]: +++ (+++ = 90-100% control at 100 ppm) | LEAF SPOT [6]: ++ (++ = 90-100% control at 400 ppm) | APPL SCAB [7]: + (+ = 20-89% control at 400 ppm) | LEAF BLOT [8]: + (+ = 20-89% control at 400 ppm) | mortality at 12 ppm [9]: 0% | mortality at 24 ppm [9]: 0% | mortality at 200 ppm [10]: 0% | mortality at 400 ppm [10]: 20% | mortality at 200 ppm [11]: 100% | mortality at 400 ppm [11]: 90% | mortality at 200 ppm [12]: 90% | mortality at 400 ppm [12]: 80% | pathogen against which compound demonstrated activity in field tests (Erysiphe graminis hordei): Erysiphe graminis hordei | pathogen against which compound demonstrated activity in field tests [13]: Erysiphe graminis tritici | pathogen against which compound demonstrated activity in field tests (Erysiphe sp.): Erysiphe sp. | pathogen against which compound demonstrated activity in field tests (Plasmopara viticola): Plasmopara viticola | pathogen against which compound demonstrated activity in field tests [14]: Pseudocercosporella herpotrichoides | pathogen against which compound demonstrated activity in field tests (Pyrenophora teres): Pyrenophora teres | pathogen against which compound demonstrated activity in field tests (Rhynchosporium secalis): Rhynchosporium secalis | pathogen against which compound demonstrated activity in field tests (Sphaerotheca fuliginea): Sphaerotheca fuliginea | mite or insect species against which they showed activity in field trials (Dawson-hop aphid): Dawson-hop aphid | mite or insect species against which they showed activity in field trials (European red mite): European red mite | mite or insect species against which they showed activity in field trials (apple aphid): apple aphid | mite or insect species against which they showed activity in field trials (apple rust mite): apple rust mite | mite or insect species against which they showed activity in field trials (bean aphid): bean aphid | mite or insect species against which they showed activity in field trials (black citrus aphid): black citrus aphid | mite or insect species against which they showed activity in field trials (cereal aphid): cereal aphid | activity against citrus rust mite in field trials (citrus rust mite): showing activity | mite or insect species against which they showed activity in field trials (cotton aphid): cotton aphid | mite or insect species against which they showed activity in field trials (grape leafhopper): grape leafhopper | mite or insect species against which they showed activity in field trials (grape thrips): grape thrips | mite or insect species against which they showed activity in field trials (green cloverworm): green cloverworm | mite or insect species against which they showed activity in field trials (green peach aphid; plant: apples): green peach aphid | mite or insect species against which they showed activity in field trials (green peach aphid; plant: sugar beet): green peach aphid | mite or insect species against which they showed activity in field trials (greenhouse thrips): greenhouse thrips | mite or insect species against which they showed activity in field trials (pea aphid; plant: alfalfa (Lucerne)): pea aphid | mite or insect species against which they showed activity in field trials (pea aphid; plant: pea, garden (English)): pea aphid | mite or insect species against which they showed activity in field trials (potato aphid): potato aphid | mite or insect species against which they showed activity in field trials (potato leafhopper): potato leafhopper | mite or insect species against which they showed activity in field trials (rosy apple aphid): rosy apple aphid | mite or insect species against which they showed activity in field trials (tarnished plant bug): tarnished plant bug | mite or insect species against which they showed activity in field trials (thrips): thrips | mite or insect species against which they showed activity in field trials (twospotted spider mite; plant: azaleas): twospotted spider mite | mite or insect species against which they showed activity in field trials (twospotted spider mite; plant: broccoli): twospotted spider mite | mite or insect species against which they showed activity in field trials (twospotted spider mite; plant: plum (Japanese)): twospotted spider mite | mite or insect species against which they showed activity in field trials (wheat aphid): wheat aphid | mite or insect species against which they showed activity in field trials (white apple leafhopper): white apple leafhopper | mite or insect species against which they showed activity in field trials (yellow hickory aphid): yellow hickory aphid
